Results published in the supplement of paper PMC11061612.

Legend:
Test in all cases: Bliss excess, mean over the matrix (fraction); higher = more synergy
[1] = system: 647-V (Bladder Carcinoma)
Method in brief: (§1)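 Bliss excess equals the observed combination effect minus the expected value EA + EB − EA·EB, where EA and EB are the effects of each agent alone. Combination Emax is the second-highest inhibition within the matrix. Inhibition was scaled from CellTiter-Glo 2.0 luminescence, with 0 set by vehicle wells and 1 by blank wells, after 72 hours of two-drug dosing of cells plated in 1536-well plates.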

[2] = system: TYK-nu (Ovarian Carcinoma)
Method in brief: as §1

[3] = system: SNG-M (Endometrial Carcinoma)
Method in brief: as §1

[4] = system: SK-LMS-1 (Other Solid Carcinomas)
Method in brief: as §1

[5] = system: HLE (Hepatocellular Carcinoma)
Method in brief: as §1

[6] = system: MCF7 (Breast Carcinoma)
Method in brief: as §1

[7] = system: SNU-61 (Colorectal Carcinoma)
Method in brief: as §1

[8] = system: A172 (Glioblastoma)
Method in brief: as §1

[9] = system: SKN-3 (Head and Neck Carcinoma)
Method in brief: as §1

[10] = system: RCC10RGB (Kidney Carcinoma)
Method in brief: as §1

[11] = system: GDM-1 (Acute Myeloid Leukemia)
Method in brief: as §1

[12] = system: MES-SA (Other Solid Carcinomas)
Method in brief: as §1

[13] = system: YT (Other Blood Carcinomas)
Method in brief: as §1

[14] = system: EFM-192A (Breast Carcinoma)
Method in brief: as §1

[15] = system: H4 (Low Grade Glioma)
Method in brief: as §1

[16] = system: D-392MG (Glioblastoma)
Method in brief: as §1

[17] = system: HCC-827 (Lung Adenocarcinoma)
Method in brief: as §1

[18] = system: MSTO-211H (Mesothelioma)
Method in brief: as §1

[19] = system: HCC1143 (Breast Carcinoma)
Method in brief: as §1

[20] = system: NOMO-1 (Acute Myeloid Leukemia)
Method in brief: as §1

| SMILES | Bliss excess [1] | Bliss excess [2] | Bliss excess [3] | Bliss excess [4] | Bliss excess [5] | Bliss excess [6] | Bliss excess [7] | Bliss excess [8] | Bliss excess [9] | Bliss excess [10] | Bliss excess [11] | Bliss excess [12] | Bliss excess [13] | Bliss excess [14] | Bliss excess [15] | Bliss excess [16] | Bliss excess [17] | Bliss excess [18] | Bliss excess [19] | Bliss excess [20] |
| --- | --- | --- | --- | --- | --- | --- | --- | --- | --- | --- | --- | --- | --- | --- | --- | --- | --- | --- | --- | --- |
| CN(CCO)CC[C@H](CSc1ccccc1)Nc1ccc(S(=O)(=O)NC(=O)c2ccc(N3CCC([C@@H](O)c4ccccc4-c4ccc(Cl)cc4)CC3)cc2)cc1S(=O)(=O)C(F)(F)F [AZD4320] + Cc1cc2ncnn2cc1Nc1ncc2c(n1)n(C1CCOCC1)c(=O)n2C [AZD7648] (first compound max 1 µM, 7x7, partner max 10 µM) | -0.0508 | -0.0405 | -0.0007 | 0.001 | -0.0295 | -0.0357 | -0.0254 | -0.0828 | -0.0463 | -0.077 | -0.0041 | -0.0399 | 0.0291 | -0.0265 | -0.0355 | -0.0614 | -0.0339 | -0.0237 | -0.0021 | 0.0103 |
| COc1nnc2ccc(N3CCC(c4ccc(OCCN5CCN(C)C(=O)[C@H]5C)cc4)CC3)nn12 [AZD5153] + C=CCn1c(=O)c2cnc(Nc3ccc(N4CCN(C)CC4)cc3)nc2n1-c1cccc(C(C)(C)O)n1 [AZD1775] (first compound max 1 µM, partner max 1 µM) | -0.0448 | -0.04 | 0.0898 | -0.0353 | 0.0069 | -0.0356 | -0.0041 | -0.0521 | -0.0342 | 0.0177 | -0.0247 | -0.0334 | -0.0842 | -0.0138 | -0.0056 | -0.0797 | 0.0237 | -0.121 | -0.0047 | -0.0364 |
| COc1nnc2ccc(N3CCC(c4ccc(OCCN5CCN(C)C(=O)[C@H]5C)cc4)CC3)nn12 [AZD5153] + CC1(C)CCC(CN2CCN(c3ccc(C(=O)NS(=O)(=O)c4ccc(NCC5CCOCC5)c([N+](=O)[O-])c4)c(Oc4cnc5[nH]ccc5c4)c3)CC2)=C(c2ccc(Cl)cc2)C1 [Venetoclax] (first compound max 1 µM, 7x7, partner max 1 µM) | -0.0455 | -0.0887 | -0.0875 | -0.0641 | -0.0522 | -0.0183 | -0.0374 | -0.0363 | -0.0576 | -0.0296 | 0.0348 | -0.06 | -0.0496 | -0.0257 | 0.033 | -0.0961 | -0.0498 | -0.111 | -0.0247 | 0.0051 |
| COc1nnc2ccc(N3CCC(c4ccc(OCCN5CCN(C)C(=O)[C@H]5C)cc4)CC3)nn12 [AZD5153] + CCN(CCO)CCCOc1ccc2c(Nc3cc(CC(=O)Nc4cccc(F)c4)[nH]n3)ncnc2c1 [AZD2811] (first compound max 1 µM, 7x7, partner max 1 µM) | 0.0236 | -0.0658 | -0.0158 | 0.0012 | -0.0177 | -0.0721 | -0.0074 | -0.0466 | -0.0436 | -0.133 | -0.0378 | -0.0028 | -0.0579 | -0.0154 | -0.0269 | -0.037 | -0.0513 | -0.0182 | -0.0474 | -0.0225 |
| COc1nnc2ccc(N3CCC(c4ccc(OCCN5CCN(C)C(=O)[C@H]5C)cc4)CC3)nn12 [AZD5153] + C[C@@H]1COCCN1C2=NC(=NC(=C2)C3(CC3)[S@](=N)(=O)C)C4=C5C=CNC5=NC=C4 [AZD6738] (first compound max 1 µM, 7x7, partner max 10 µM) | 0.029 | -0.0386 | -0.0014 | -0.0163 | 0.0608 | -0.0228 | 0.0459 | -0.0059 | 0.0128 | 0.0638 | 0.0146 | 0.0781 | -0.0687 | 0.0551 | -0.0081 | -0.0033 | 0.08 | -0.0354 | -0.0036 | -0.0324 |
| COc1nnc2ccc(N3CCC(c4ccc(OCCN5CCN(C)C(=O)[C@H]5C)cc4)CC3)nn12 [AZD5153] + Cc1c2c(nn1C)CSCc1cc(n(C)n1)CSc1cc(c3ccccc3c1)OCCCc1c(C(=O)O)n(C)c3c-2c(Cl)ccc13 [AZD5991] (first compound max 1 µM, 7x7, partner max 1 µM) | -0.0135 | -0.0363 | -0.0033 | 0.0003 | 0.0047 | -0.0003 | -0.0178 | -0.0698 | -0.0234 | -0.0843 | 0.0307 | -0.0125 | -0.0316 | -0.0467 | -0.0287 | -0.0388 | -0.0225 | 0.0307 | 0.0412 | 0.0355 |
| COc1nnc2ccc(N3CCC(c4ccc(OCCN5CCN(C)C(=O)[C@H]5C)cc4)CC3)nn12 [AZD5153] + Cn1cnc2c(F)c(Nc3ccc(Br)cc3Cl)c(C(=O)NOCCO)cc21 [Selumetinib] (first compound max 1 µM, 7x7, partner max 10 µM) | 0.0604 | -0.044 | 0.0042 | 0.0383 | 0.0073 | -0.0307 | 0.0407 | -0.0304 | -0.019 | -0.114 | -0.0266 | 0.0199 | -0.0383 | -0.0096 | -0.0184 | 0.0081 | -0.0543 | 0.007 | 0.0561 | 0.0443 |
| Cc1c2c(nn1C)CSCc1cc(n(C)n1)CSc1cc(c3ccccc3c1)OCCCc1c(C(=O)O)n(C)c3c-2c(Cl)ccc13 [AZD5991] + C1CN(CCC1(C(=O)N[C@@H](CCO)C2=CC=C(C=C2)Cl)N)C3=NC=NC4=C3C=CN4 [Capivasertib] (first compound max 1 µM, 7x7, partner max 3 µM) | -0.0059 | 0.0172 | -0.0065 | 0.0054 | 0.0341 | 0.0778 | -0.0174 | -0.0001 | -0.0285 | -0.0085 | 0.0461 | -0.0144 | -0.0466 | 0.0579 | 0.0378 | 0.0557 | -0.0212 | -0.0066 | 0.0114 | 0.0814 |
| Cc1c2c(nn1C)CSCc1cc(n(C)n1)CSc1cc(c3ccccc3c1)OCCCc1c(C(=O)O)n(C)c3c-2c(Cl)ccc13 [AZD5991] + C=CCn1c(=O)c2cnc(Nc3ccc(N4CCN(C)CC4)cc3)nc2n1-c1cccc(C(C)(C)O)n1 [AZD1775] (first compound max 1 µM, partner max 1 µM) | 0.059 | 0.0279 | -0.0456 | -0.0388 | 0.0017 | -0.0622 | -0.0118 | 0.0736 | 0.0116 | -0.0182 | 0.0207 | 0.0402 | -0.0725 | -0.0297 | -0.042 | 0.116 | -0.0243 | 0.0284 | 0.0689 | -0.01 |
| Cc1c2c(nn1C)CSCc1cc(n(C)n1)CSc1cc(c3ccccc3c1)OCCCc1c(C(=O)O)n(C)c3c-2c(Cl)ccc13 [AZD5991] + CC1(C)CCC(CN2CCN(c3ccc(C(=O)NS(=O)(=O)c4ccc(NCC5CCOCC5)c([N+](=O)[O-])c4)c(Oc4cnc5[nH]ccc5c4)c3)CC2)=C(c2ccc(Cl)cc2)C1 [Venetoclax] (first compound max 1 µM, 7x7, partner max 1 µM) | -0.0271 | -0.0144 | -0.027 | -0.0422 | -0.0061 | 0.0623 | -0.0143 | -0.0222 | -0.03 | -0.0086 | 0.174 | -0.0068 | -0.0017 | 0.0257 | 0.0384 | 0.0314 | -0.0269 | -0.0455 | 0.0051 | 0.256 |
| Cc1c2c(nn1C)CSCc1cc(n(C)n1)CSc1cc(c3ccccc3c1)OCCCc1c(C(=O)O)n(C)c3c-2c(Cl)ccc13 [AZD5991] + CCN(CCO)CCCOc1ccc2c(Nc3cc(CC(=O)Nc4cccc(F)c4)[nH]n3)ncnc2c1 [AZD2811] (first compound max 1 µM, 7x7, partner max 1 µM) | 0.0896 | 0.0438 | 0.0446 | -0.0538 | -0.0018 | 0.0081 | 0.0315 | -0.0101 | 0.0134 | -0.0567 | 0.0444 | 0.138 | 0.0185 | 0.0012 | 0.0207 | 0.0121 | 0.0011 | 0.0477 | 0.0514 | 0.0894 |
| Cc1c2c(nn1C)CSCc1cc(n(C)n1)CSc1cc(c3ccccc3c1)OCCCc1c(C(=O)O)n(C)c3c-2c(Cl)ccc13 [AZD5991] + CN(C)CCCOc1ccc(-c2ccc3ncc4c(c3c2)n(C2CCOCC2)c(=O)n4C)cn1 [AZD0156] (first compound max 1 µM, 7x7, partner max 1 µM) | 0.015 | -0.034 | 0.01 | -0.0645 | 0.0424 | -0.0063 | -0.0047 | -0.0019 | -0.0173 | -0.0619 | 0.0079 | 0.017 | -0.0197 | -0.0427 | 0.0376 | -0.0225 | 0.011 | -0.0129 | -0.0287 | -0.0177 |
